The values below come from patent EP4624482A1, “PYRIMIDOPYRIMIDINONE COMPOUND AND PHARMACEUTICAL COMPOSITION COMPRISING SAME” (Axceso Biopharma Co., Ltd., priority 2022, dated 2024).

The test system of one test is α-synuclein. The experiment in a line: α-synuclein expression in rotenone-treated differentiated SH-SY5Y dopaminergic neurons, western blot. As to conditions: differentiated dopaminergic neurons treated with rotenone. In kind it is cell-based, human. The procedure:
To analyze the effect on the expression of tyrosine hydroxylase (TH) and α-synuclein as neuron-specific proteins, western blot was performed.
SH-SY5Y cell line was treated with retinoic acid and 12-O-tetradecanoylphorbol-13-acetate (TPA) to induce differentiation into TH-secreting neurons for 6 days.
Differentiated dopaminergic neurons were lysed in PRO-PREP (Intronbio), a cell lysis solution containing protease inhibitor cocktail (Gendepot), and electrophoresed in 10% SDS polyacrylamide gels at 20 µg/well. Transfer was performed using PVDF (Merck millipore) as a membrane, and tyrosine hydroxylase antibody, α-synuclein antibody (Cell signaling), and β-actin antibody (Santa Cruz) were used for reaction for more than 2 hours. Protein expression was detected by staining with ECL substrate (Biorad) for development and graphed using the image J program.
On the technique in general: A western blot detects proteins with antibodies after separation by electrophoresis.

The subject of the next test is C57BL/6 mice. Kind of test: Acute respiratory distress syndrome induced by CLP: lung histology, lung injury score, wet-to-dry weight ratio. The format is in vivo. The following applies: treated at 6 and 16 hours after CLP, lungs harvested at 18 hours. The protocol: CLP induces pulmonary edema due to increased inflammation and disruption of the vascular barrier, resulting in acute respiratory distress syndrome (ARDS). To determine the effect on ARDS, the compound of formula (1a-1) was treated at 6 and 16 hours after CLP treatment in the same manner as in Experimental Example 7 above, the lungs of mice were harvested at 18 hours for histological analysis, and the wet-to-dry weight ratio of the lungs was obtained. For comparison, mice without CLP treatment served as a control group.
For histologic analysis, the harvested lungs were fixed in 10% paraformaldehyde, infiltrated with paraffin, sectioned into 5 µm-thick tissues, and then de-paraffinized with xylene. Sectioned tissues were mounted on slides, stained with H&E, and observed under an optical microscope. In addition, the lung tissue damage was evaluated by histological score to obtain the lung injury score (LIS) for each group.
To calculate the wet-to-dry weight ratio, lung organs were harvested 18 hours after CLP treatment, and the wet weight was measured immediately after harvesting, and the dry weight was measured after drying in an oven at 60°C for 48 hours to calculate the wet-to-dry weight ratio. The wet-to-dry weight ratio is used as an indicator of organ edema formation.

For another test, the system named is IL-6. The experiment in a line: Serum IL-6 after CLP treatment, ELISA. In kind it is in vivo, mouse. As to conditions: treated at 6 and 16 hours after CLP, serum at 18 hours. The procedure: After CLP treatment, the inflammatory cytokines TNF-α and IL-6 were analyzed by ELISA.
Specifically, after treating the compound of formula (1a-1) at 6 and 16 hours after CLP treatment, mouse blood was collected at 18 hours and allowed to stand at room temperature for 1 hour, then centrifuged at 3000 rpm for 10 minutes to obtain serum to analyze the amount of TNF-α and IL-6.

Consider `CCCCCCCCCCCCCC[C@H]1OP(=O)(O)O[C@H]1[C@@H](N)CO.Cl` [formula (1a-1), (4S,5R)-4-((S)-1-amino-2-hydroxyethyl)-2-hydroxy-5-tetradecyl-1,3,2-dioxaphosphoran-2-oxide hydrochloride], for which the “expression of α-synuclein increased by rotenone” value in the test on α-synuclein was “decreased”. Moreover, in the test with C57BL/6 mice, the lung injury score entry was “almost restores the lung injury score to normal”; the “lung tissue (optical microscope, H&E)” value is listed as “almost restored to normal”; the “wet-to-dry weight ratio of the lung” value is on record as “restores the wet-to-dry weight ratio of the lung to normal”. Besides, in the test with IL-6, the “amount of inflammatory cytokine IL-6” value is recorded as “significantly decreased”.
